According to US4737487A, “VIP type peptides” (Beecham Group p.l.c., priority 1984, dated 1988):
Where a SMILES comes first, the peptide text is derived from it. [ ]: non-standard residue; d: D form. Nle = CCCC[C@H](N)C(=O)O

Experiments:
[1] = system: proximal duodenum acid disposal capacity; test: Acid disposal capacity of the rat proximal duodenum (anti-ulcer activity); format: in vivo; conditions: significance P<0.05
Experimental: Anti-ulcer activity may be related to the enhanced capacity to dispose of gastric acid. Acid disposal capacity may be enhanced by increased intestinal secretions and enhanced acid disposal capacity is believed to be useful in the treatment of peptic ulcer disease. Method for estimating the acid disposal capacity of the rat proximal duodenum Male Wistar rats, 180-250 g bodyweight, fasted overnight, are anaesthetized with urethane (150 mg/100 g bodyweight i.m.). The trachea is cannulated, and a gastric cannula, 0.5 cm i.d., 3 cm long, is inserted into the non-glandular forestomach via a mid-line abdominal incision. The intragastric cannula is exteriorized via a stab wound in the body wall. A triple lumen catheter, 0.3 cm o.d., is passed via the gastric cannula through the pylorus. The duodenum is ligated 1 cm below the pylorus, and the pylorus ligated around the cannula, thus creating a 1 cm proximal duodenal pouch excluding pancreatic and biliary secretions. The two ligatures enclosing the duodenal pouch are placed so as to avoid occluding the blood supply to the duodenal segment. Gastric secretions are allowed to drain freely from the gastric cannula. […] Outflow pH is recorded throughout the experiment. […] A group size of 6 animals or larger is used and the effect of compounds on the output pH compared to control data determined. […]

[2] = system: spontaneous motility of proximal colon; test: Colonic motility in vivo: intraluminal pressure recording in anaesthetised rat; conditions: urethane-anaesthetised male Wistar rats; intravenous administration; 3 μmol/kg
Experimental: Male albino rats, Wistar strain (Charles River UK) 300-500 g were anaesthetised with urethane. A segment of proximal colon was prepared for intraluminal pressure recording after the method of Maggi and Meli (Maggi, C. A. and Meli, A. (1982), J. Pharmacol. Methods 8, 39-46). The activity of the compound (V) was assessed from its action on the spontaneous motility of the preparation after intravenous administration.

[3] = system: spontaneous contractile responses of circular muscle from the proximal colon; test: Colonic motility in vitro: isolated circular muscle of rat proximal colon; format: cell-based; conditions: rat proximal colon circular muscle in Krebs solution, isolated tissue bath
Experimental: Segments of circular muscle cut from the proximal colon of rats were mounted in Krebs solution in isolated tissue baths after the methods of Couture et al. (Couture R. et al. (1981), Can. J. Physiol. Pharmacol., 59, 957-964; and Couture R. et al., (1982), Pharmacol., 24, 230-242). The activity of the compound V was assessed from the effect on the spontaneous contractile responses generated by this tissue.

| Structure (SMILES) | acid disposal (output pH compared to control) ([1]; 30 nmol/kg/h i.v. infusion, input pH 2.5 on first pass) | acid disposal (output pH compared to control) ([1]; 150 nmol/kg/h i.v. infusion, input pH 3 and 2.5 on first pass and input pH 2.5 on second pass) | action on the spontaneous motility of the proximal colon preparation [2] | ED50, effect on spontaneous contractile responses [3] |
| --- | --- | --- | --- | --- |
| CCCC[C@H](NC(=O)[C@H](CCC(N)=O)NC(=O)[C@@H](N)CCCCN)C(=O)N[C@@H](C)C(=O)N[C@@H](CC(C)C)C(=O)N[C@@H](CCCCN)C(N)=O [Example 4, H-Lys-Gln-Nle-Ala-Leu-Lys-NH2.Acetate] (H-KQ[Nle]ALK-NH2) | significant increase | significant increase | – | – |
| CCCC[C@H](NC(=O)[C@H](CCC(N)=O)NC(=O)[C@@H](N)CCCCN)C(=O)N[C@@H](C)C(=O)N[C@H](C(=O)N[C@@H](CCCCN)C(N)=O)C(C)C [V, H-Lys-Gln-Nle-Ala-Val-Lys-NH2] (H-KQ[Nle]AVK-NH2) | – | – | active | 10^-5 M |
